US20240335439A1, “USE OF AND METHOD FOR TELAPREVIR IN PREPARATION OF DRUG FOR TREATING AN ISCHEMIA/REPERFUSION INJURY AND CYTOPROTECTIVE DRUG” (THE THIRD XIANGYA HOSPITAL OF CENTRAL SOUTH UNIVERSITY, priority 2021, published 2024)

Tests used:
SH-SY5Y nerve cells = test: NMDA induced nerve cell injury model of SH-SY5Y cells, MTS viability; assay type: cell-based; conditions: 1 mM NMDA 30 minutes, then 24 h culture; telaprevir 1, 5, 10 μM; FIG. 5C
Experimental: SH-SY5Y nerve cells were purchased from the Xiangya Cell Bank of Central South University.
Cell culture method: Following a conventional cell culture method, the above SH-SY5Y nerve cells were cultured in an RPMI 1640 medium (containing 20% of fetal bovine serum). When the cells fused and grew to 80-90%, the cells were digested with a trypsin. After the cells shrank and became round and the intercellular space was obvious, the digestion was immediately terminated with a medium, the cells were dispersed and blown evenly into a single suspension state, passaged in bottles, and cultured in a 37° C. cell incubator containing 5% of CO2.
The SH-SY5Y cells at the fusion rate of 80-90% or more can be seeded on plates. […]
Cell viability was detected by MTS.
The measurement followed the operating instructions of a commercially available MTS kit (Promega (Beijing) Biotech Co., Ltd.). […] The absorbance of the cells at 490 nm was measured by enzyme-linked immunosorbent assay (the absorbance was controlled at 0.7-1.2), where the absorbance value reflected relative cell viability. Calculation: cell viability (%)=absorbance of the drug group/absorbance of the control group×100%. When the absorbance value of each group was calculated, the absorbance value of the background blank control group was first subtracted.

[1] = tested on: Alzheimer's disease mouse models; test: Alzheimer's disease mouse model (Aβ1-42 into hippocampus), new/old object recognition experiment; assay type: in vivo, ICR mice; conditions: telaprevir 40 mg/kg intramuscular daily for 17 days; ##P<0.01 vs vehicle group, FIG. 7
Experimental: Experimental animals: 7-week-old healthy male ICR mice weighing 25-30 g. The experimental animals were raised for one week in an environment with a temperature of 25° C., a relative humidity of 60%, free drinking water, and timed and quantified feeding, and then administered according to the requirements of each experimental group.
Building of an Alzheimer's disease mouse model and drug treatment: Aβ1-42 was purchased from MCE Reagent Company, dissolved in DMSO, diluted with physiological saline to 2 μg/μL, and incubated in an incubator at 37° C. for 7 days to convert the Aβ1-42 into an aggregated state. […]
A learning and memory ability and cognitive function of mice were detected by a Morris water maze experiment and a new/old object recognition experiment.
According to the requirements of the new/old object recognition experiment, the experiment included three stages: an adaptation period, a training period, and a testing period. […] One of the two objects was replaced with another object with a different shape and color (denoted as C), and the time for the experimental mice to probe the two different objects within 10 minutes was recorded. […]

SMILES: CCC[C@H](NC(=O)[C@@H]1[C@H]2CCC[C@H]2CN1C(=O)[C@@H](NC(=O)[C@@H](NC(=O)c1cnccn1)C1CCCCC1)C(C)(C)C)C(=O)C(=O)NC1CC1 [telaprevir]
- cell viability (MTS) of NMDA treated SH-SY5Y cells (SH-SY5Y nerve cells): significantly inhibit a decrease
- cognitive index, new/old object recognition [1]: significantly increased
